Test results as given in article PMC10202811 (Nature Medicine, 2023).
Where two headings read alike, the source gives them in different places.

Test: Plasma pharmacokinetics of lorlatinib at steady state (LC-MS/MS, non-compartmental analysis)
Format: in vivo, human
Conditions: for Lambda_z: in h-1 (unit assumed); for Tlag: unit assumed; for Cmax: read-out: Cmax; for AUC: read-out: AUC_TAU
From the text: Lorlatinib was isolated from human plasma by a liquid-iquid extraction procedure. […] A linear-log trapezoidal method was used [NT] A best-fit method was used to estimate terminal elimination and to extrapolate any plasma concentration versus time profiles to compute [NT].

[1] = Cycle 1 Day 15, Cohort A1, 115 mg/m2 per dose, individual patients
[2] = Cycle 1 Day 15, Cohort A1, 115 mg/m2 per dose, individual patients, in h (unit assumed)
[3] = Cycle 1 Day 15, Cohort A1, 115 mg/m2 per dose, individual patients, in ng/mL
[4] = Cycle 1 Day 15, Cohort A2, 100 mg per dose, individual patients
[5] = Cycle 1 Day 15, Cohort A2, 150 mg per dose, individual patients
[6] = Cycle 1 Day 15, Cohort A2, 150 mg per dose, individual patients, in h (unit assumed)
[7] = Cycle 1 Day 15, patient N0773, Cohort B2, 115 mg/m2 per dose, Dose 75
[8] = Cycle 1 Day 15, patient N0773, Cohort B2, 115 mg/m2 per dose, Dose 75, in h (unit assumed)
[9] = human, in vivo, 115 mg/m2, Cohort A1, 115 mg/m2 per dose, C1D15, Geometric Mean, N 6
[10] = human, in vivo, 115 mg/m2, Cohort A1, 115 mg/m2 per dose, C1D15, Median, N 6
[11] = human, in vivo, 115 mg/m2, Cohort B2, 115 mg/m2 per dose, C1D15, Geometric Mean, N 6
[12] = human, in vivo, 115 mg/m2, Cohort B2, 115 mg/m2 per dose, C1D15, Median, N 6
[13] = human, in vivo, 115 mg/m2, Cycle 1 Day 1, Cohort B2, 115 mg/m2 per dose

C[C@H]1Oc2cc(cnc2N)-c2c(nn(C)c2C#N)CN(C)C(=O)c2ccc(F)cc21 [Lorlatinib, (10R)-7-amino-12-fluoro-2,10,16-trimethyl-15-oxo-10,15,16,17-tetrahydro-2H-8,4-(metheno)pyrazolo[4,3-h][2,5,11]-benzoxadiazacyclotetradecine-3-carbonitrile]
Swing [1]: 8.184
Swing_Tau [1]: 8.184
Tlast [1]: 24 h
Vz_F [1]: 274.2
HL_Lambda_z [2]: 12
Tmin [2]: 0
Lambda_z [1]: 0.05778
Cavg [3]: 341.9
Clast [3]: 147
Clast_pred [3]: 144.8
Cmin [3]: 147
Ctau [3]: 147
Tlag [1]: 0 h
AUC_TAU_%Extrap [4]: 0%
Tlast [4]: 24 h
Tmax (Cycle 1 Day 15, Cohort A2, 100 mg per dose, individual patients, in h (unit assumed)): 2
Tmax (Cycle 1 Day 15, Cohort A2, 100 mg per dose, individual patients, listed as lorlatinib, in h (unit assumed)): 2
Tlag [4]: 0 h
AUC_TAU_%Extrap [5]: 0%
Tlast [5]: 24 h
MRTINF_obs [6]: 20.95
MRTINF_pred [6]: 20.85
Tmax [6]: 2
Tmin [6]: 0
Clast_pred (Cycle 1 Day 15, Cohort A2, 150 mg per dose, individual patients, in ng/mL): 129.9
AUCINF_pred (Cycle 1 Day 15, Cohort A2, 150 mg per dose, individual patients, in ng·h/mL (unit assumed)): 8874
Tlag [5]: 0 h
AUMC_TAU [7]: 28139.0694
Accumulation_Index [7]: 1.002
CLss_F [7]: 10.79
Cmax_D [7]: 23.73
Fluctuation% [7]: 464.7
Fluctuation%_Tau [7]: 613.5
Swing [7]: 3.101
Swing_Tau [7]: 559.2
Tlast [7]: 6 h
Vz_F [7]: 40.19
HL_Lambda_z [8]: 2.582
Tmin [8]: 6
Lambda_z [7]: 0.2684
Cavg (Cycle 1 Day 15, patient N0773, Cohort B2, 115 mg/m2 per dose, Dose 75, in ng/mL): 289.6
Tlag [7]: 0 h
Tmax (human, in vivo, 60 mg/m2, Cohort A1, 60 mg/m2 per dose, C1D15, Geometric Mean, N 3, read-out: Tmax): 1.59 h
Cmax (human, in vivo, 75 mg/m2, Cycle 1 Day 1, Cohort A1, 75 mg/m2 per dose, individual patients): 467 ng/mL
AUC [9]: 8640 ng·h/mL
Cmax [9]: 1210 ng/mL
Tmax (human, in vivo, 115 mg/m2, Cohort A1, 115 mg/m2 per dose, C1D15, Geometric Mean, N 6, read-out: Tmax): 1.59 h
AUC [10]: 8570 ng·h/mL
Cmax [10]: 1280 ng/mL
Tmax (human, in vivo, 115 mg/m2, Cohort A1, 115 mg/m2 per dose, C1D15, Median, N 6, read-out: Tmax): 1.5 h
AUC [11]: 7950 ng·h/mL
Cmax [11]: 1460 ng/mL
Tmax (human, in vivo, 115 mg/m2, Cohort B2, 115 mg/m2 per dose, C1D15, Geometric Mean, N 6, read-out: Tmax): 1.12 h
AUC [12]: 6940 ng·h/mL
Cmax [12]: 1560 ng/mL
Tmax (human, in vivo, 115 mg/m2, Cohort B2, 115 mg/m2 per dose, C1D15, Median, N 6, read-out: Tmax): 1 h
MRT last (human, in vivo, 115 mg/m2, Cycle 1 Day 1, Cohort A1, 115 mg/m2 per dose): 11.1 h
Tmax (human, in vivo, 115 mg/m2, Cycle 1 Day 1, Cohort A1, 115 mg/m2 per dose, read-out: Tmax): 1 h
AUC(0-t) [13]: 17700 ng·h/mL
MRT last [13]: 8.5 h
